The structures appear in SMILES notation.

These results are taken from ChEMBL document CHEMBL4800728, “Data for DCP probe JNJ-54119936” (2021).

In assay [1] the target is Serine/threonine-protein kinase Chk2 (Homo sapiens) (UniProt O96017). Description: CHK2 Invitrogen kinase panel. Particulars: Compound concentration 10.0 uM.
For assay [2], the target named is Casein kinase II subunit alpha (Homo sapiens) (UniProt P68400). Description: CK2alpha1 Invitrogen kinase panel. Particulars: Compound concentration 10.0 uM.
Assay [3] concerns the target Casein kinase II subunit alpha' (Homo sapiens) (UniProt P19784). Description: CK2alpha2 Invitrogen kinase panel. Particulars: Compound concentration 10.0 uM.
The target of assay [4] is Interleukin-1 receptor-associated kinase 4 (Homo sapiens) (UniProt Q9NWZ3). The assay is described as follows: IRAK4 Invitrogen kinase panel. Particulars: Compound concentration 10.0 uM.
Assay [5] concerns the target NT-3 growth factor receptor (Homo sapiens) (UniProt Q16288). The assay is described as follows: TrkC Invitrogen kinase panel. Particulars: Compound concentration 10.0 uM.
The target of assay [6] is Serine/threonine-protein kinase PAK 4 (Homo sapiens) (UniProt O96013). The assay is described as follows: PAK4 Invitrogen kinase panel. Particulars: Compound concentration 10.0 uM.
For assay [7], the target named is Platelet-derived growth factor receptor beta (Homo sapiens) (UniProt P09619). The assay is described as follows: PDGFRbeta Invitrogen kinase panel. Particulars: Compound concentration 10.0 uM.
The target in assay [8] is cAMP-dependent protein kinase catalytic subunit alpha (Homo sapiens) (UniProt P17612). The assay is described as follows: PKA Invitrogen kinase panel. Particulars: Compound concentration 10.0 uM.
Assay [9] concerns the target Peroxisome proliferator-activated receptor alpha (Homo sapiens) (UniProt Q07869). Description: (§1) PPARalpha In-house nuclear receptor screen. Particulars: Compound concentration 3.0 uM.
The target in assay [10] is Peroxisome proliferator-activated receptor alpha (Homo sapiens, UniProt Q07869). The description is as §1.
Assay [11] concerns the target T1, Peroxisome proliferator-activated receptor delta (Homo sapiens) (UniProt Q03181).
T1 sequence (whole entry): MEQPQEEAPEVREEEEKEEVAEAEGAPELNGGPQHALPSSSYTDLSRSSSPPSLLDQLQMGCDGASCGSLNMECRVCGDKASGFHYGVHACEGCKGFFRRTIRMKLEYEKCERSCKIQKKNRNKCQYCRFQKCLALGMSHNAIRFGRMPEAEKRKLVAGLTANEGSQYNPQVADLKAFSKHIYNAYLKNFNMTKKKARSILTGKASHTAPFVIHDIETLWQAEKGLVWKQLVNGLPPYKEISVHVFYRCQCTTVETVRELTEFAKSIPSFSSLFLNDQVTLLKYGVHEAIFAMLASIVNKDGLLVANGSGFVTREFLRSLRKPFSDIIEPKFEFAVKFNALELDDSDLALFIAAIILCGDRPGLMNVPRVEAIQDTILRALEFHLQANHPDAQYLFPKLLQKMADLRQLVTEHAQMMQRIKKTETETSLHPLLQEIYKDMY
The assay is described as follows: (§2) PPARdelta In-house nuclear receptor screen. Particulars: Compound concentration 3.0 uM.

The target in assay [12] is Peroxisome proliferator-activated receptor delta (Homo sapiens, UniProt Q03181). The assay is described as §2.
Assay [13] deals with T2, Oxysterols receptor LXR-beta (Homo sapiens) (UniProt P55055).
T2 sequence (whole entry): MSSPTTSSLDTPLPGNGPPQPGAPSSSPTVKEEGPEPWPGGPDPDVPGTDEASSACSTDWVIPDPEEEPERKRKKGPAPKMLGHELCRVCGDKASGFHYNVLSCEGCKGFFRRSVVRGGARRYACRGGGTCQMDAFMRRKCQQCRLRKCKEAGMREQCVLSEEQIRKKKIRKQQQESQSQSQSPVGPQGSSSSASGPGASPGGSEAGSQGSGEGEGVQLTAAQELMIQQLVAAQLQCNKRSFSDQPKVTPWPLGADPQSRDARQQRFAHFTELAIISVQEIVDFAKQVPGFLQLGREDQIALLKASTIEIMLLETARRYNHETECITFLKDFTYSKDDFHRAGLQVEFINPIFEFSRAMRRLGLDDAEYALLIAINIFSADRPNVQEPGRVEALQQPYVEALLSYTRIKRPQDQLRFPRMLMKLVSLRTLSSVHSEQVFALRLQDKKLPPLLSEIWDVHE
Description: (§3) LXRbeta In-house nuclear receptor screen. Particulars: Compound concentration 3.0 uM.

Assay [14] deals with Oxysterols receptor LXR-beta (Homo sapiens, UniProt P55055). The description is as §3.
Assay [15] has as its target T3, Bile acid receptor (Homo sapiens) (UniProt Q96RI1).
T3 sequence (whole entry): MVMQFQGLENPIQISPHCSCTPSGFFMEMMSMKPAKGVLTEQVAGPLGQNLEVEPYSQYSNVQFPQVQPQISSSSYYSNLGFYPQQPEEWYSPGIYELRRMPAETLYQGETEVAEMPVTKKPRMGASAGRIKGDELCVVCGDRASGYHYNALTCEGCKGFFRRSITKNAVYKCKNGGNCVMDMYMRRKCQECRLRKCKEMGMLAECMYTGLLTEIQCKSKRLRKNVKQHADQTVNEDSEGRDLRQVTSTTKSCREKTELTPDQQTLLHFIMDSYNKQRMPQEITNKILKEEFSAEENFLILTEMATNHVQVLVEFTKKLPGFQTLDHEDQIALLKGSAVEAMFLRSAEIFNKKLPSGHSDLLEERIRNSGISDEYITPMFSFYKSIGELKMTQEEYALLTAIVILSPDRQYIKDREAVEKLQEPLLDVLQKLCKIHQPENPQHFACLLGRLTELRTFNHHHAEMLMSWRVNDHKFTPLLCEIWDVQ
Description: FXR Indigo Bioscience nuclear receptor screen.

In assay [16] the target is 5-hydroxytryptamine receptor 6 (Homo sapiens) (UniProt P50406). Particulars: Compound concentration 10.0 uM.
For assay [17], the target named is Sodium-dependent dopamine transporter (Homo sapiens) (UniProt Q01959). Particulars: Compound concentration 10.0 uM.
The target in assay [18] is Alpha-1A adrenergic receptor (Homo sapiens) (UniProt P35348). Particulars: Compound concentration 10.0 uM.
Assay [19] has as its target T4, Muscarinic acetylcholine receptor M1 (Homo sapiens) (UniProt P11229).
T4 sequence (whole entry): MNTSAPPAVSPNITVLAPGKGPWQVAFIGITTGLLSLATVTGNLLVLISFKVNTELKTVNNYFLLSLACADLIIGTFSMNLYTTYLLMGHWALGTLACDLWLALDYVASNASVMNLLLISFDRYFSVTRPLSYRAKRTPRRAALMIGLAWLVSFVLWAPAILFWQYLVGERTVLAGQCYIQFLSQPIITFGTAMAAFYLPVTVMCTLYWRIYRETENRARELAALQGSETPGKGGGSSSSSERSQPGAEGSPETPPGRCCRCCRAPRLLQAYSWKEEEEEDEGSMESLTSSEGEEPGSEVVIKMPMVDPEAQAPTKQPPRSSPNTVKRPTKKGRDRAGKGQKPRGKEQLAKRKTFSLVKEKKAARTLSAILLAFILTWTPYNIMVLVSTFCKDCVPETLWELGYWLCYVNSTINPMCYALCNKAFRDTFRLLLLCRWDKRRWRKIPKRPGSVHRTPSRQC
Particulars: Compound concentration 10.0 uM.

Assay [20] has as its target Beta-3 adrenergic receptor (Homo sapiens) (UniProt P13945). Particulars: Compound concentration 10.0 uM.
The target in assay [21] is GABA-A receptor; anion channel (Rattus norvegicus) (UniProt O09028+P15431+P18506+P18508+P19969+P20236+P23574+P23576+P28471+P28473+P30191+P62813+P63079+P63138+Q91ZM7+Q9ES14). Particulars: Compound concentration 10.0 uM.

Sequence of Beta-3 adrenergic receptor (Homo sapiens) (P13945 whole entry, looked up): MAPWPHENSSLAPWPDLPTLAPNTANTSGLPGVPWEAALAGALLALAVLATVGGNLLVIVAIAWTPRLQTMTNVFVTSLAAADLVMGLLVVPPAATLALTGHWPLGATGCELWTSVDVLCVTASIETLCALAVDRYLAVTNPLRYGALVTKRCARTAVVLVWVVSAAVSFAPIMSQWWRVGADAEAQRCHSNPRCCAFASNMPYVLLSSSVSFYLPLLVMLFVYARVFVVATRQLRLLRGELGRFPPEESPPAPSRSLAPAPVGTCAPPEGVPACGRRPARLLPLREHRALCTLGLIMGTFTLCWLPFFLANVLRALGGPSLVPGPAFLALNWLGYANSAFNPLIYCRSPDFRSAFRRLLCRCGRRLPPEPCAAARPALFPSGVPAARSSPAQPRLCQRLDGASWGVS
Sequence of Peroxisome proliferator-activated receptor alpha (Q07869 whole entry): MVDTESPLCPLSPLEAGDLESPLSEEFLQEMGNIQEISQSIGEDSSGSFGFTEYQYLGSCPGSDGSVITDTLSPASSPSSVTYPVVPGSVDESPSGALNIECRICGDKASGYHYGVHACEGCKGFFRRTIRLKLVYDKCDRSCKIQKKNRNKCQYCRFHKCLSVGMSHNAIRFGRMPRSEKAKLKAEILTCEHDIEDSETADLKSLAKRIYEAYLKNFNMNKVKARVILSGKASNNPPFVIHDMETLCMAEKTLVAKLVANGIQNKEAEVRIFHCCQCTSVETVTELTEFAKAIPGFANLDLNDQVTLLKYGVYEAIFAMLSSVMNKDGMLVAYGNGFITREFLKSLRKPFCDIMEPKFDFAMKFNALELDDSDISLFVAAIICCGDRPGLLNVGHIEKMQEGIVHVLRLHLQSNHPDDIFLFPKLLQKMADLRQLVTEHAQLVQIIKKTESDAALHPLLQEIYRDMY
Sequence of Peroxisome proliferator-activated receptor alpha (Homo sapiens) (Q07869 whole entry): as above
Sequence of Casein kinase II subunit alpha' (Homo sapiens) (P19784 whole entry, looked up): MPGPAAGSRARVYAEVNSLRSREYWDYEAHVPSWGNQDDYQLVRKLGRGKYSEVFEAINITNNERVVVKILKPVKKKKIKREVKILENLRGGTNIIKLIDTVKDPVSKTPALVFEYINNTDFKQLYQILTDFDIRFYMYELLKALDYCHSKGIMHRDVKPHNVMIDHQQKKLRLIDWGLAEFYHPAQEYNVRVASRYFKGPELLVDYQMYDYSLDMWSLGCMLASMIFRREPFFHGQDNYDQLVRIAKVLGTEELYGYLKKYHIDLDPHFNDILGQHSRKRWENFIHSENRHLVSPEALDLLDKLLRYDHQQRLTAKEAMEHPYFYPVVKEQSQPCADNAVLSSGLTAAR
Sequence of Platelet-derived growth factor receptor beta (Homo sapiens) (P09619 whole entry): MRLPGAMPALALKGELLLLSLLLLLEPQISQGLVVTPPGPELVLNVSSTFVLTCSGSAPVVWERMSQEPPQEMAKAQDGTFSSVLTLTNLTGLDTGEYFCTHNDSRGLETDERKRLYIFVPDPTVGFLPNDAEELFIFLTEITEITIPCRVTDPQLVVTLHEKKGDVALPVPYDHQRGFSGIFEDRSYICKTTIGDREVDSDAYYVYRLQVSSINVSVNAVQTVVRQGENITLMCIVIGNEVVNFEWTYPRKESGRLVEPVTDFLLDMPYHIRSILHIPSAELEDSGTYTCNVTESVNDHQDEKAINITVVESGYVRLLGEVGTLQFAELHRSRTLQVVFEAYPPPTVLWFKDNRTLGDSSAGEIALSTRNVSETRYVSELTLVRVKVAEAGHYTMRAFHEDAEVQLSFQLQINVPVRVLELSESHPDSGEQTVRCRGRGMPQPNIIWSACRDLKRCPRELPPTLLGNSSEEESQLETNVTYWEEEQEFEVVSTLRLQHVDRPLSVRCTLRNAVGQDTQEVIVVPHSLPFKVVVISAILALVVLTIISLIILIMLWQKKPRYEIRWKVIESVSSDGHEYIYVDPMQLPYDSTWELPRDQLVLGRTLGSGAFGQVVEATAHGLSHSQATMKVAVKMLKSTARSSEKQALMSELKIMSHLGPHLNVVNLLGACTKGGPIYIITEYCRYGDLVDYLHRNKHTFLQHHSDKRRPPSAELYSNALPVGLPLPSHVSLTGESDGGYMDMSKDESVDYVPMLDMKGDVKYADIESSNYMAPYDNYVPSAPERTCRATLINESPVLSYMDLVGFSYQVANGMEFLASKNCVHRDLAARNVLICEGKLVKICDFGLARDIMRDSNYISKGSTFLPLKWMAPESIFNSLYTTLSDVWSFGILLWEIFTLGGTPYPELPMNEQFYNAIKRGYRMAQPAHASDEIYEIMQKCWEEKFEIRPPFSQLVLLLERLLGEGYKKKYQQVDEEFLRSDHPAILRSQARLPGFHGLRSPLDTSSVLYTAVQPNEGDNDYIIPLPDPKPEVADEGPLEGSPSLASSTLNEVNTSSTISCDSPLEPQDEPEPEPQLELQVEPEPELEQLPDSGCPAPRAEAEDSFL
Sequence of Serine/threonine-protein kinase Chk2 (Homo sapiens) (O96017 whole entry): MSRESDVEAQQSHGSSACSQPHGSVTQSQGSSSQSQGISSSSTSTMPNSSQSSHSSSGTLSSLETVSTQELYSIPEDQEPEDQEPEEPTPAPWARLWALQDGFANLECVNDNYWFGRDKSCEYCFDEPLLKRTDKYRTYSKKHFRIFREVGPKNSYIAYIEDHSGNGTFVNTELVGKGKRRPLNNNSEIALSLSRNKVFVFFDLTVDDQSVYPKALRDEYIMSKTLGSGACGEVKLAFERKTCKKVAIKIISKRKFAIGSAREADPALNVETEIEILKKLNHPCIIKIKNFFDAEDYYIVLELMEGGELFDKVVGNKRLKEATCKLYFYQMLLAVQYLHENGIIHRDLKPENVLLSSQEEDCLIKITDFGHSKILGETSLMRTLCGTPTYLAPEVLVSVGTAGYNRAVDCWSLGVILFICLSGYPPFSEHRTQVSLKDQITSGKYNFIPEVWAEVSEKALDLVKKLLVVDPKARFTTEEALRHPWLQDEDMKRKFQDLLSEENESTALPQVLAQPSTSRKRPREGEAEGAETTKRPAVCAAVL
Sequence of Serine/threonine-protein kinase PAK 4 (Homo sapiens) (O96013 whole entry, looked up): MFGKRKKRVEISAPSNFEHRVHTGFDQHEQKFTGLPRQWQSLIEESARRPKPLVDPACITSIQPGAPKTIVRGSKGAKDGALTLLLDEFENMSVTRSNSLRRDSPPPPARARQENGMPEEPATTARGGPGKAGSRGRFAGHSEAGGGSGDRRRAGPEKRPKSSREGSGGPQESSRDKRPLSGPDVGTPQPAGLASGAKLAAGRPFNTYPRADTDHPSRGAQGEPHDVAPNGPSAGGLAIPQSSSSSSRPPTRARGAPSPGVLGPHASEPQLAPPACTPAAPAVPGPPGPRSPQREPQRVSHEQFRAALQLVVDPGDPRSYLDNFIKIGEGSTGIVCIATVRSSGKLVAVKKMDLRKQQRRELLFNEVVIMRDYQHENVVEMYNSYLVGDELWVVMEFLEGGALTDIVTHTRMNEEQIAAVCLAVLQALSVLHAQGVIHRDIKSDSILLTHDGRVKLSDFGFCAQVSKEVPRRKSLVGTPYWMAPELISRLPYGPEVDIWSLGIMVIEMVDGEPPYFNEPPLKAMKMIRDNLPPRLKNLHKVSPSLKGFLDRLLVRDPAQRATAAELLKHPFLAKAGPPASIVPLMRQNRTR
Sequence of Casein kinase II subunit alpha (Homo sapiens) (P68400 whole entry, looked up): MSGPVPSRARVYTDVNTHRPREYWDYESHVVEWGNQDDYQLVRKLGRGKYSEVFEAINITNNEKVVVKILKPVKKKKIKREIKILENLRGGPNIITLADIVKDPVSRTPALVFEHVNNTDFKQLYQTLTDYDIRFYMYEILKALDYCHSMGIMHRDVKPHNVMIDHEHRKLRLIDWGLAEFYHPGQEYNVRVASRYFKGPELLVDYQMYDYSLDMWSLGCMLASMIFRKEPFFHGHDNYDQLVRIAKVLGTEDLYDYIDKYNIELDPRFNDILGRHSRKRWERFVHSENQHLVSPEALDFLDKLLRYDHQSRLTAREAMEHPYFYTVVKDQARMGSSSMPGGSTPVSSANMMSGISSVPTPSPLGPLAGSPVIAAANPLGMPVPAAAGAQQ
Sequence of NT-3 growth factor receptor (Homo sapiens) (Q16288 32-839 limits assumed): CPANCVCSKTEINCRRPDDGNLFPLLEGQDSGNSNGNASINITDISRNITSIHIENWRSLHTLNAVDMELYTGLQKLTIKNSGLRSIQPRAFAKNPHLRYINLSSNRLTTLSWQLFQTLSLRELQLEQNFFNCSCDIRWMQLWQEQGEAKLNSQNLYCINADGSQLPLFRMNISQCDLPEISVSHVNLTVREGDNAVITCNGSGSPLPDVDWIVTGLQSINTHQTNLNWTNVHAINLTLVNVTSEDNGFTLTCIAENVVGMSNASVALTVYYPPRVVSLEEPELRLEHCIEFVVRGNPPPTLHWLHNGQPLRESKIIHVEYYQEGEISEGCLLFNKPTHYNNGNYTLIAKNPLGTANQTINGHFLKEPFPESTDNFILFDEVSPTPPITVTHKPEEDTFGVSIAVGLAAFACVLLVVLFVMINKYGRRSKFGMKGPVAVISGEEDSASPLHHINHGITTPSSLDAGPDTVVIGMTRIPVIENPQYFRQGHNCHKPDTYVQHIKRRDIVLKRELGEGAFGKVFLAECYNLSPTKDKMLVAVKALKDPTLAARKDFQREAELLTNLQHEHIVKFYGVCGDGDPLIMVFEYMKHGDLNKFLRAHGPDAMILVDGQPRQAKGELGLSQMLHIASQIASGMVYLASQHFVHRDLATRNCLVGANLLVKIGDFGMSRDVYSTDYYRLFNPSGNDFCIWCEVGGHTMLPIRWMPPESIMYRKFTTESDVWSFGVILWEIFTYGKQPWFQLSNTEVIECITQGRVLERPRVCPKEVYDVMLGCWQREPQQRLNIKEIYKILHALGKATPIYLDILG

As for `COc1nc2ccc([C@@](O)(c3ccccc3)C3CCN(C(C)=O)CC3)cc2c(Cl)c1Cc1ccc(-n2cccn2)cc1` [JNJ-54119936], the inhibition – broadly, the change of the read-out against control, counted positive when it falls – in [1] was 6%; in assay [2] it was 2%; in assay [3], 4%; in assay [4] it was 6%; in assay [5], 3%; in assay [6] it was 4%. Moreover, the inhibition is 5% in assay [7]; 1% in assay [8]; 17% in assay [9]; 37.3% in assay [11]; 10% in assay [13]; -8.5% in assay [15] (Compound concentration 0.3 uM). Also, the inhibition in assay [15] (Compound concentration 1.0 uM) was 5.23%; in assay [16], 8.8%; in [17] it was 21%; in assay [18] it was 10.3%; in [19], 5.4%; in [20], 39.4%. For the same compound, the inhibition in assay [21] is 10.3%. Also, the IC50 (usually the concentration that inhibits the measured activity by half) in assay [10] is ~5 µM; in assay [12], 5.9 µM; in assay [14], ~5 µM.
